This passage reports Activity results from ChEMBL document CHEMBL1133489, “Synthesis of FF-MAS from lithocholic acid” (Bioorg Med Chem Lett, 2000).

SMILES strings stand for the structures.

This assay is filed under the species Mus musculus. The experiment in a line: Compound was evaluated for meiosis inducing effect on immature mouse oocytes; Positive. In kind it is functional.

Turning to `CC(C)=CCC[C@@H](C)[C@H]1CC=C2C3=C(CC[C@@]21C)[C@@]1(C)CC[C@H](O)C(C)(C)[C@@H]1CC3`, the Activity entry is “Positive”.
